# Measurements: PubChem BioAssay AID330 (DTP/NCI, 2004)
# Inconclusive results and toxic doses are left out.
# System: P388 leukemia ip, CD2F1 mice, survival T/C
# Test: NCI In Vivo Anticancer Drug Screen. Data for tumor model P388 Leukemia (intraperitoneal) in CD2F1 (CDF1) mice
# Conditions: endpoint: median survival time, higher = longer survival
# Method in brief: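 Mice carrying the transplanted tumor received test compound or vehicle. Survival was recorded in each group, and the value is the treated-group measurement divided by that of the vehicle-treated control group.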
# [1] = dose: 50.0 mg/kg/injection, schedule: Q01DX009 (ip), vehicle: saline with Tween-80
# [2] = dose: 100.0 mg/kg/injection, schedule: Q01DX009 (ip), vehicle: saline with Tween-80
# [3] = dose: 200.0 mg/kg/injection, schedule: Q01DX009 (ip), vehicle: saline with Tween-80
# [4] = dose: 60.0 mg/kg/injection, schedule: Q01DX005 (ip), vehicle: saline with Tween-80
# [5] = dose: 120.0 mg/kg/injection, schedule: Q01DX005 (ip), vehicle: saline with Tween-80
# [6] = dose: 240.0 mg/kg/injection, schedule: Q01DX005 (ip), vehicle: saline with Tween-80
# [7] = dose: 50.0 mg/kg/injection, schedule: Q01DX009 (ip), vehicle: saline
# [8] = dose: 100.0 mg/kg/injection, schedule: Q01DX009 (ip), vehicle: saline
# [9] = dose: 100.0 mg/kg/injection, schedule: Q01DX005 (ip), vehicle: Klucel (hydroxypropylcellulose) (HPC)
# [10] = dose: 200.0 mg/kg/injection, schedule: Q01DX005 (ip), vehicle: Klucel (hydroxypropylcellulose) (HPC)
# [11] = dose: 50.0 mg/kg/injection, schedule: Q01DX005 (ip), vehicle: Klucel (hydroxypropylcellulose) (HPC)
smiles,measurement,setting,value
Clc1ccc2c(c1)Oc1ccccc1C=N2,T/C,[1],107 % of control
same,T/C,[2],98 % of control
same,T/C,[3],96 % of control
O=NNc1ccc(Cl)cn1,T/C,"dose: 3.12 mg/kg/injection, schedule: Q01DX009 (ip), vehicle: water",123 % of control
same,T/C,"dose: 12.5 mg/kg/injection, schedule: Q01DX009 (ip), vehicle: water",187 % of control
CC1(C(=O)O)CCCC2(C)C3CC(=O)OC3(CC(=O)O)CCC12 (configuration not stated),T/C,"dose: 7.5 mg/kg/injection, schedule: Q01DX009 (ip), vehicle: saline + alcohol",91 % of control
same,T/C,"dose: 15.0 mg/kg/injection, schedule: Q01DX009 (ip), vehicle: saline + alcohol",98 % of control
same,T/C,"dose: 30.0 mg/kg/injection, schedule: Q01DX009 (ip), vehicle: saline + alcohol",103 % of control
Cc1cccc(Cl)c1NC(=O)NCCCN1CCOCC1,T/C,[4],102 % of control
same,T/C,[5],100 % of control
same,T/C,[6],112 % of control
S=C(NNC(=S)Nc1ccccc1)Nc1ccccc1,T/C,"dose: 25.0 mg/kg/injection, schedule: Q01DX009 (ip), vehicle: saline",102 % of control
same,T/C,"dose: 50.0 mg/kg/injection, schedule: Q01DX009 (ip), vehicle: Klucel (hydroxypropylcellulose) (HPC)",97 % of control
same,T/C,[7],109 % of control
same,T/C,"dose: 100.0 mg/kg/injection, schedule: Q01DX009 (ip), vehicle: Klucel (hydroxypropylcellulose) (HPC)",93 % of control
same,T/C,[8],100 % of control
same,T/C,"dose: 200.0 mg/kg/injection, schedule: Q01DX009 (ip), vehicle: Klucel (hydroxypropylcellulose) (HPC)",101 % of control
same,T/C,"dose: 400.0 mg/kg/injection, schedule: Q01DX009 (ip), vehicle: Klucel (hydroxypropylcellulose) (HPC)",104 % of control
COc1cc(C(=O)OC(C)CC2(c3ccccc3)C(=O)NC(=O)NC2=O)cc(OC)c1OC (configuration not stated),T/C,[1],90 % of control
same,T/C,[2],90 % of control
Cc1ccc2c3c(c(O)c(C(C)(C)O)cc13)OC2=O,T/C,"dose: 15.63 mg/kg/injection, schedule: Q01DX005 (ip), vehicle: Klucel (hydroxypropylcellulose) (HPC)",91 % of control
same,T/C,"dose: 31.25 mg/kg/injection, schedule: Q01DX005 (ip), vehicle: Klucel (hydroxypropylcellulose) (HPC)",90 % of control
same,T/C,"dose: 62.5 mg/kg/injection, schedule: Q01DX005 (ip), vehicle: Klucel (hydroxypropylcellulose) (HPC)",93 % of control
same,T/C,"dose: 125.0 mg/kg/injection, schedule: Q01DX005 (ip), vehicle: Klucel (hydroxypropylcellulose) (HPC)",93 % of control
same,T/C,"dose: 250.0 mg/kg/injection, schedule: Q01DX005 (ip), vehicle: Klucel (hydroxypropylcellulose) (HPC)",93 % of control
C/C(=N\OC(=O)c1c(-c2c(Cl)cccc2Cl)noc1C)c1ccccc1O,T/C,[7],91 % of control
same,T/C,[8],94 % of control
same,T/C,"dose: 200.0 mg/kg/injection, schedule: Q01DX009 (ip), vehicle: saline",93 % of control
O=C(/C=C/c1ccccc1)OCC12OC1C(O)C1C=COC(OC3OC(CO)C(O)C(O)C3O)C12 (configuration not stated),T/C,"dose: 4.38 mg/kg/injection, schedule: Q01DX005 (ip), vehicle: Klucel (hydroxypropylcellulose) (HPC)",96 % of control
same,T/C,"dose: 8.75 mg/kg/injection, schedule: Q01DX005 (ip), vehicle: Klucel (hydroxypropylcellulose) (HPC)",94 % of control
same,T/C,"dose: 17.5 mg/kg/injection, schedule: Q01DX005 (ip), vehicle: Klucel (hydroxypropylcellulose) (HPC)",97 % of control
same,T/C,"dose: 35.0 mg/kg/injection, schedule: Q01DX005 (ip), vehicle: Klucel (hydroxypropylcellulose) (HPC)",97 % of control
same,T/C,"dose: 70.0 mg/kg/injection, schedule: Q01DX005 (ip), vehicle: Klucel (hydroxypropylcellulose) (HPC)",97 % of control
same,T/C,[9],95 % of control
same,T/C,[10],103 % of control
CCCNS(=O)(=O)c1ccccc1C(=O)NC1CCCCC1,T/C,[11],103 % of control
same,T/C,[9],93 % of control
same,T/C,[10],94 % of control
CCCCCCCCCCCCCCCc1nc(SCC(=O)OC)n[nH]1,T/C,[4],99 % of control
same,T/C,[5],99 % of control
same,T/C,[6],98 % of control
N#CCc1cccc2c(=O)cc(-c3ccccc3)oc12,T/C,[11],106 % of control
same,T/C,[9],96 % of control
same,T/C,[10],87 % of control
Cc1cccc(-n2c(-c3ccc([N+](=O)[O-])cc3)csc2=NC(=O)c2cccc([N+](=O)[O-])c2)c1C,T/C,[1],91 % of control
same,T/C,[2],87 % of control
same,T/C,[3],87 % of control
